The subject of this test is C33A cells. As to the kind of experiment: Colony formation assay. Conditions: 14 days culture, compared to blank control. The test is classed as cell-based, human. The protocol: Cells treated with drugs were separately seeded in a 6-well plate and cultured continuously for 14 days. During this period, the culture medium was changed every 2-3 days. Once visible cell colonies formed, the culture medium was removed, and the cells were fixed with 4% paraformaldehyde for 30 minutes, followed by staining with 0.1% crystal violet for 30 minutes. Finally, the colonies were counted and photographed using an optical microscope.

Each structure is given as a SMILES string.

On to `N.N.[Cl][Pt][Cl]` [cisplatin], for which the “number of C33A colonies, single agent” value is on record as “decreased”.
